Series [1] can be described thus: Reduction of in situ formed copper(II) complexes by GSH, followed spectrophotometrically. Format: physicochemical. The settings on record: 1:1 metal to ligand, 5 eq GSH (Figure 5B). The text has this: Disruption of cellular redox homeostasis can be responsible for the toxicity of an anticancer agent. […] In addition to their redox potentials, redox cycling of the complexed metal ions is also influenced by the kinetics of the reduction and re-oxidation reactions. Reduction of iron(III) and copper(II) complexes by the physiologically relevant reducing agents glutathione (GSH) and ascorbate was followed spectrophotometrically. Although GSH is a stronger reducing agent than ascorbate, ascorbate reacted considerably faster with the iron(III) complexes (Figure 5A), while reduction by GSH seemed to be kinetically hindered (not shown). […]
Figure 5 Reduction of the in situ formed iron(III) and copper(II) complexes from equimolar metal-to-ligand ratios with antioxidants was followed spectrophotometrically by the decrease in the respective absorbance maxima. (A) Time-dependent decrease of the absorbance values in equimolar 1:1 metal to ligand mixtures of FeCl3 with Q-1 at 356 nm (black), Q-2 at 348 nm (blue), Q-3 at 334 nm (green) and Q-4 at 328 nm upon addition of 2.5 equivalents of ascorbate. (B) Time-dependent decrease of the absorbance values in equimolar 1:1 metal to ligand mixtures of CuCl2 with Q-1 at 370 nm (black), Q-2 at 372 nm (blue), Q-3 at 368 nm (green) and Q-4 at 430 nm upon addition of 5 eq GSH. […]

Details of series [2]: method as in PMID 30460942. The settings on record: copper(II) complex of the ligand; cited from earlier work.

Each structure is given as a SMILES string.

As for `Oc1c(CN2CCOCC2)ccc2cccnc12` [Compound Q-2, 7-(morpho-lino-methyl)quinolin-8-ol], the “Time until half of the initial copper(II) complex is reduced by GSH” value in series [1] is “within the first minute”.
Take `Oc1c(CNCc2ccccc2F)cc(Cl)c2cccnc12` [Compound Q-4, 5-chloro-7-((2-fluorobenzylamino)methyl)quinolin-8-ol]: in series [2], the “pKa CuLH (logβCuLH − logβCuL)” value is reported as 5.91. Further, the “Time until half of the initial copper(II) complex is reduced by GSH” value in series [1] was “not yet fully reached after two hours”.

Source of the values: article PMC7796460, “Relation of Metal-Binding Property and Selective Toxicity of 8-Hydroxyquinoline Derived Mannich Bases Targeting Multidrug Resistant Cancer Cells” (Cancers, 2021).
